Measurements published in US6906170B1 (Yeda Research and Development Co. Ltd., priority 1998, dated 2005).
No end group written: not given here.

Legend:
human T cells = assay: T cell chemotaxis through FN-coated polycarbonate membranes; assay type: cell-based; details: peptide 1 pg/ml, FN-coated membrane; for inhibition of T cell migration toward IL-2: IL-2 10 U/ml in lower compartment, p<0.01; for inhibition of T cell chemotaxis toward MIP-1β: MIP-1β in lower compartment
Method: T cell migration towards the chemotactic sources was assessed after 2 hr. One experiment representative of four.
Chemotaxis assays. T cell chemotaxis was performed and analyzed as previously described (Ben-Baruch et al., 1997). Briefly, the migration of human T cells (0.5×10^6 cells in adhesion medium/well) was examined in a 48-well chemotaxis micro-chamber (Neuro-Probe Inc., Cabin John, M D). The two compartments of the micro-chambers were separated by a FN-coated polycarbonate filter (5 μm pore size; Osmonics Protein Products, Livemore, Calif.). […] After incubation (120 min, 37° C., in a humidified, 7.5% CO2 atmosphere); the filters were removed, fixed, and stained with a Diff-Quik staining kit Dade, Düdingen, Switzerland). The number of migrating T cells in five high-power fields (under 500× magnification; WILD Microscope, Heerbrugg, Switzerland) was evaluated. For each group, the results are expressed as the mean number of cells in one high-power field.
Immune cell migration is the outcome of a subtle biological equilibrium existing between adhesion and detachment events. Lymphocyte adhesion to the subendothelial ECM and subsequent migration are two active processes that can overlap, but are not mutually dependent events. Adhesion and migration may depend on the ability of the T cells to continuously integrate different pro- and anti-adhesive signals via their versatile receptors for ECM, chemokines, cytokines, and possibly, also antigenic moieties.

HT-29 cells = assay: Spontaneous IL-8 secretion from intestinal epithelial cells (ELISA); assay type: cell-based, human; set-up: IL-8 secretion Average O.D.: scale not given here; details: peptide 1 nM, 24 h at 37° C.; for IL-8 secretion Average O.D.: ELISA O.D. at 405 nm, medium alone 488 ± 8.5, background 71 ± 1.4; for IL-8 secretion % inhibition: spontaneous secretion
Method: Human colonic epithelial cell lines HT-29 (ATCC HTB38) and Caco-2 (ATCC […]) were obtained from the American Type Culture Collection (ATTC, Rockville, Md.). Cells were maintained in culture medium (DMEM supplemented with 10% cosmic calf serum (CSS), 2 mM glutamine, 100 U/ml penicillin, and 0.1 mg/ml streptomycin), at 37° C. and atmosphere of 5%, CO2. Cell viability was assessed using the standard MTT method.
Spontaneous or cytokine-induced secretion of IL-8 or IL-1β from intestinal epithelial cell. Test cells (HT-29 or Caco-2) were grown as confluent monolayers in 24-well tissue culture plates. […] When TNF-α was used, the peptides were added to the cells 1 hour prior to the addition of TNF-α. Following culture, the supernatants were harvested and analyzed for IL-8 or IL-1β secretion by ELISA using commercially available kits for IL-8 (Pharmingen) and IL-1β (Genzyme), according to the manufacturers' protocols.
The results in Table 1 show the O.D. readings of the ELISA assay (at 405 nm) as well as the percentage of inhibition of IL-8 secretion.

Row | Substance | inhibition of T cell migration toward IL-2 (human T cells) | inhibition of T cell chemotaxis toward MIP-1β (human T cells) | IL-8 secretion Average O.D. (HT-29 cells) | IL-8 secretion % inhibition (HT-29 cells) [%]
1 | Glu-Phe-Leu-Asn-Arg-Trp-Ile-Thr (EFLNRWIT; not fully specified (C-terminus); printed as Glu-Phe-Leu-Asn-Arg-Trp-Ile-Thr) [pep2] | ~60% | only a limited inhibitory effect | 36 ± 4.2 | 108
2 | Ile-Val-Leu [pep1] | about 30% | 80% | 54 ± 19.1 | 104
